# Assay results reported in patent US6555663B1, “Prodrugs for selective drug delivery” (priority 1986, dated 2003).
# Legend:
# [1] = tested on: RSFFV (Raucher Spleen Focus Forming Virus); test: Treatment of C3H mice infected with Raucher Spleen Focus Forming Virus: spleen weight; format: in vivo
# Method: The effectiveness of MTL J-1 was tested in C3H mice against the virus RSFFV (Raucher Spleen Focus Forming Virus) which is a retrovirus and is a valid animal model for HIV infection by application to the above identified mice according to the following procedure:
# (§1) Three groups of two month old C3H mice, each comprising four animals were provided as one control and two test groups, wherein, the three-groups (I-III) were subjected to an infectious dose of RSFFV on day one. The first group (I) served as control and received no treatment. Group II and III were treated with […] total body weight concentration of the drug Foscarnet and the test compound MTL J-1, respectively which was administered each day for days 5 through 9. The animals were sacrificed on day 14, where upon the spleens where removed and weighed.
# (§2) The tests were redone with a second control group (IA) having no infection of RSFFV and receiving no treatment with any drug, wherein groups I and IA comprise four mice each, and groups II and III comprise five mice each, providing the results summarized below: […]
# [2] = Body weight of treated RSFFV-infected C3H mice (toxicity); format: in vivo
# Method: as §1, §2
# [3] = RSFFV-infected C3H mice, 10 μM total body weight concentration, days 5 through 9
# [4] = first test (Table 1), RSFFV on day one, 10 μM total body weight concentration each day for days 5 through 9, sacrificed day 14
# [5] = repeat test (Table 2) with a second, uninfected control group IA, same treatment
Substance,"Effectiveness, as demonstrated by the absence of splenomegaly [1, 3]","Spleen weight Normalized [1, 4]","Spleen weight Normalized [1, 5]","Toxicity, as demonstrated by an absence of weight loss [2, 3]","Ending Weight ([2]; mouse, in vivo)","Weight change ([2]; mouse, in vivo)","Ending Weight [2, 4]","Weight change [2, 4]","Ending Weight [2, 5]","Weight change [2, 5]"
"5-phosphonoformate-1,5-di-(p-N-2-(N-(4-aminobutyl)-N-ethylisoluminol)-N-ethylaminophenyl)-1,5-bis-(p-N,N-dimethylaniline)-1,3-pentadiene [MTL J-1]",highly effective,.068 grams,0.049 grams,nontoxic,19.2 grams,+1.5 grams,,,,
phosphonoformate [Foscarnet],,.079 grams,0.061 grams,,,,21.2 grams,0.15 grams,19.6 grams,+1.6 grams
